Paper doi:10.1101/2024.08.19.608619, “Discovery of potent SARS-CoV-2 nsp3 macrodomain inhibitors uncovers lack of translation to cellular antiviral response” (bioRxiv, 2024)
Values joined by “and” are separate entries in the source; they are usually repeats but may differ in a detail not shown here. Equal values may be shown once.

Tests used:
beta2 (h) = target: T1, beta2 (h) (Homo sapiens, UniProt P07550); assay: In vitro CEREP profiling, beta2 (h) (antagonist radioligand); type: binding; settings: test compound 10 uM
T1 construct: purchased Eurofins Cerep (SafetyScreen44), recognised from the panel format
Source text: (§1) Supplement media-1.zip/Safety_Panel_Profile.csv, table | column: perc_inhibition

KV channel = assay: In vitro CEREP profiling, KV channel (antagonist radioligand); type: binding; settings: test compound concentration 10 uM
Source text: as §1

BZD (central) = assay: In vitro CEREP profiling, BZD (central) (agonist radioligand); type: binding; settings: test compound 10 uM
Source text: as §1

PDE3A (h) = target: T2, PDE3A (h) (Homo sapiens, UniProt Q14432); assay: In vitro CEREP profiling, PDE3A (h); type: biochemical; settings: test compound concentration 10 uM, Enzyme and Cell-based assays
T2 construct: purchased Eurofins Cerep (SafetyScreen44), recognised from the panel format
Source text: as §1

H2 (h) = target: T3, H2 (h) (Homo sapiens, UniProt P25021); assay: In vitro CEREP profiling, H2 (h) (antagonist radioligand); type: binding; settings: test compound concentration 10 uM
T3 construct: purchased Eurofins Cerep (SafetyScreen44), recognised from the panel format
Source text: as §1

COX1(h) = target: T4, COX1(h) (Homo sapiens, UniProt P23219); assay: In vitro CEREP profiling, COX1(h); type: biochemical; settings: test compound concentration 10 uM, Enzyme and Cell-based assays
T4 construct: purchased Eurofins Cerep (SafetyScreen44), recognised from the panel format
Source text: as §1

[1] = system: Ca2+ channel (L, dihydropyridine site); assay: In vitro CEREP profiling, Ca2+ channel (L, dihydropyridine site) (antagonist radioligand); type: binding; settings: test compound concentration 10 uM
Source text: as §1

Vero E6/TMPRSS2 = Vero E6/TMPRSS2 cytotoxicity with P-gp inhibitor; type: cell-based; settings: for perc_max_measured: highest measured response of the dose series; for perc_min_measured: lowest measured response of the dose series
Source text: Supplement media-1.zip/Cytotoxicity.csv, table | column: cc10; cc50; perc_min_measured; perc_max_measured

GR (h) = target: T5, GR (h) (Homo sapiens, UniProt P04150); assay: In vitro CEREP profiling, GR (h) (agonist radioligand); type: binding; settings: test compound concentration 10 uM
T5 construct: purchased Eurofins Cerep (SafetyScreen44), recognised from the panel format
T5 sequence (P04150 1-777): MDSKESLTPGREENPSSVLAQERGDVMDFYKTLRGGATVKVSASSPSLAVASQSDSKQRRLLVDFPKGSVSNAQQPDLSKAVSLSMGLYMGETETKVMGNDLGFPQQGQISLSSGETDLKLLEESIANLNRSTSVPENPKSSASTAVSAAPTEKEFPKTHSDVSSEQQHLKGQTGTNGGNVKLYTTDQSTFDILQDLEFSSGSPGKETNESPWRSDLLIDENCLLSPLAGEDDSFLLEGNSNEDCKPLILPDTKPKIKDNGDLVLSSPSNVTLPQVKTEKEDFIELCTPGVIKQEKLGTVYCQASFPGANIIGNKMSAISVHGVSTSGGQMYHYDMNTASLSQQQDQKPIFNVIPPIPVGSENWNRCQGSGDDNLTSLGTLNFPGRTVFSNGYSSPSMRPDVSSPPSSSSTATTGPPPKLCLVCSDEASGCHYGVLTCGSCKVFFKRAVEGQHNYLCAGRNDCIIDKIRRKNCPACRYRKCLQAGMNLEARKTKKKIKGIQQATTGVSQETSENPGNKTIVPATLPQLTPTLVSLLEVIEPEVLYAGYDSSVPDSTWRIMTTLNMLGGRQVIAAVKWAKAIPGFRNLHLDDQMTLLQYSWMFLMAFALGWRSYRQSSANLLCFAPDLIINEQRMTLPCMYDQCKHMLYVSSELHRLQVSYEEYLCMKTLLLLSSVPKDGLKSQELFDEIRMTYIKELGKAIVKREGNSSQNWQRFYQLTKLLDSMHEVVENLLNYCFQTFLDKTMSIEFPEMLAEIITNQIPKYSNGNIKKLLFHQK
Source text: as §1

dopamine transporter (h) = target: T6, dopamine transporter (h) (Homo sapiens, UniProt Q01959); assay: In vitro CEREP profiling, dopamine transporter (h) (antagonist radioligand); type: binding; settings: test compound concentration 10 uM
T6 construct: purchased Eurofins Cerep (SafetyScreen44), recognised from the panel format
Source text: as §1

H1 (h) = target: T7, H1 (h) (Homo sapiens, UniProt P35367); assay: In vitro CEREP profiling, H1 (h) (antagonist radioligand); type: binding; settings: test compound concentration 10 uM
T7 construct: purchased Eurofins Cerep (SafetyScreen44), recognised from the panel format
Source text: as §1

5-HT transporter (h) = target: T8, 5-HT transporter (h) (Homo sapiens, UniProt P31645); assay: In vitro CEREP profiling, 5-HT transporter (h) (antagonist radioligand); settings: test compound concentration 10 uM
T8 construct: purchased Eurofins Cerep (SafetyScreen44), recognised from the panel format
Source text: as §1

[2] = target: T9, N neuronal alpha4beta2 (h) (Homo sapiens, UniProt P17787+P43681); assay: In vitro CEREP profiling, N neuronal alpha4beta2 (h) (agonist radioligand); type: binding; settings: test compound concentration 10 uM
T9 construct: purchased Eurofins Cerep (SafetyScreen44), recognised from the panel format
Source text: as §1

AR(h) = assay: In vitro CEREP profiling, AR(h) (agonist radioligand); type: binding, human; settings: test compound concentration 10 uM
Source text: as §1

[3] = In vitro dog liver microsomal stability; type: in vitro ADME
Source text: Supplement media-1.zip/Hepatic_Microsomal_Stability.csv, table | column: clint; t_half

PDE4D2 (h) = target: T10, PDE4D2 (h) (Homo sapiens, UniProt Q08499); assay: In vitro CEREP profiling, PDE4D2 (h); type: biochemical; settings: test compound concentration 10 uM, Enzyme and Cell-based assays
T10 construct: purchased Eurofins Cerep (SafetyScreen44), recognised from the panel format
Source text: as §1

Na+ channel (site 2) = assay: In vitro CEREP profiling, Na+ channel (site 2) (antagonist radioligand); type: binding; settings: test compound concentration 10 uM
Source text: as §1

human CHRM2 (M2) = target: T11, human CHRM2 (M2) (Homo sapiens, UniProt P08172); assay: Eurofins CEREP panel, M2; type: binding; settings: M2 (h) (antagonist radioligand), test compound concentration 10 uM
T11 construct: purchased Eurofins Cerep (SafetyScreen44), recognised from the panel format
T11 sequence (P08172 1-466): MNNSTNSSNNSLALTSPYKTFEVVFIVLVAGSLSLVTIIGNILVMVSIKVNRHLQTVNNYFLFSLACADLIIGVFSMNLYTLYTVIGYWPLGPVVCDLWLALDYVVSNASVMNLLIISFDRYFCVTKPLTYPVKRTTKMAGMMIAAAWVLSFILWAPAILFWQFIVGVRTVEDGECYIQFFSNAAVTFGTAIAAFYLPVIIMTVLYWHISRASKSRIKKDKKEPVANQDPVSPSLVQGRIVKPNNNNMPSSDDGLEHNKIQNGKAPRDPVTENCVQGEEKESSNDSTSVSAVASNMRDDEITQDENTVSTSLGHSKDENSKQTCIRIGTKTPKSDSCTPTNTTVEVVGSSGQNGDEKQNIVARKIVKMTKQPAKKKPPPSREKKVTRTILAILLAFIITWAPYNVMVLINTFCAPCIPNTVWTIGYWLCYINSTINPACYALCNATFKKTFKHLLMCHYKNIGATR

[4] = read-out: perc_inhibition (% inhibition of the binding of a ligand specific for each target)
[5] = read-out: perc_inhibition, % inhibition of the binding of a ligand specific for each target

T10 sequence (Q08499 303-809): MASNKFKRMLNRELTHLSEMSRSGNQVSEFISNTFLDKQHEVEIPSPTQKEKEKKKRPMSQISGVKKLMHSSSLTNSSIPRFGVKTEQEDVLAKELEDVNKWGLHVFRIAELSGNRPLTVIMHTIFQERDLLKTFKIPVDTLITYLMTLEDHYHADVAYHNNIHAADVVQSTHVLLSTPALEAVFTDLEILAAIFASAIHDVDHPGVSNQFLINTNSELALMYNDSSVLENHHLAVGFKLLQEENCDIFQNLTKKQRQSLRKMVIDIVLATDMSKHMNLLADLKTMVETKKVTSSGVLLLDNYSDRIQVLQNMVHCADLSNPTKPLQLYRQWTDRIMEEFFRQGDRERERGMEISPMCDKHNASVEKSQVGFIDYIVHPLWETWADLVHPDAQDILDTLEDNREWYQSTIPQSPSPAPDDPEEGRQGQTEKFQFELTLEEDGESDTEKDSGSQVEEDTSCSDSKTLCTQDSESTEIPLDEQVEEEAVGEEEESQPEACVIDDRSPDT
T2 sequence (Q14432 whole entry): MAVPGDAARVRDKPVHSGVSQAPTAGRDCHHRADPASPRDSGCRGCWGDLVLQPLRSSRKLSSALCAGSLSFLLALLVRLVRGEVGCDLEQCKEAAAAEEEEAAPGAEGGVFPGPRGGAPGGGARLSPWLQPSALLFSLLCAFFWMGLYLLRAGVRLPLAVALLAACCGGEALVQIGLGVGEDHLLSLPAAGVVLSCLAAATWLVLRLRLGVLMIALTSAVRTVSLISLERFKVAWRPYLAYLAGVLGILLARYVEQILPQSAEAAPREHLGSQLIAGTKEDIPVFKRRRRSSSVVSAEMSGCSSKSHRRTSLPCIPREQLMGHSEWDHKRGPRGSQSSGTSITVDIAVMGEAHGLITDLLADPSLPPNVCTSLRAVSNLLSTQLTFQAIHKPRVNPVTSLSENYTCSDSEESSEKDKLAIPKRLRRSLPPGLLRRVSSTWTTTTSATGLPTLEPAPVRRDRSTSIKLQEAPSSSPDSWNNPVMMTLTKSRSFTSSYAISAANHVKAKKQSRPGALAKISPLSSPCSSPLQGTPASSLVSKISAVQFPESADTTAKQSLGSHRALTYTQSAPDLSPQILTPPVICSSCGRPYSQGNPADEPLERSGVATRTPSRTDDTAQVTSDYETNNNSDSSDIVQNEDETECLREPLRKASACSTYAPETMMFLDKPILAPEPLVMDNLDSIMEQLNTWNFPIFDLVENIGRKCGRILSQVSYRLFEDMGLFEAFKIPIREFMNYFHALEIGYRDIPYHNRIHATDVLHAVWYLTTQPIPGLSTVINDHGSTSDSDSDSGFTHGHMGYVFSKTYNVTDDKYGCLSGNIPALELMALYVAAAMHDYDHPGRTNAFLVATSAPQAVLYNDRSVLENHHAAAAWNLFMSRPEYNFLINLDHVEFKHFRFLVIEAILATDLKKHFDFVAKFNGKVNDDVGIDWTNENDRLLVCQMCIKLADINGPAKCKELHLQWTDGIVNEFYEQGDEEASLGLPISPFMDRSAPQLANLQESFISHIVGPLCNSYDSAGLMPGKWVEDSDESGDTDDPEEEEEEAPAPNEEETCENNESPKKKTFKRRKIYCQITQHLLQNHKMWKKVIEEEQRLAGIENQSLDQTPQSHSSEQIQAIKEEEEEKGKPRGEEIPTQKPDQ
T8 sequence (P31645 whole entry): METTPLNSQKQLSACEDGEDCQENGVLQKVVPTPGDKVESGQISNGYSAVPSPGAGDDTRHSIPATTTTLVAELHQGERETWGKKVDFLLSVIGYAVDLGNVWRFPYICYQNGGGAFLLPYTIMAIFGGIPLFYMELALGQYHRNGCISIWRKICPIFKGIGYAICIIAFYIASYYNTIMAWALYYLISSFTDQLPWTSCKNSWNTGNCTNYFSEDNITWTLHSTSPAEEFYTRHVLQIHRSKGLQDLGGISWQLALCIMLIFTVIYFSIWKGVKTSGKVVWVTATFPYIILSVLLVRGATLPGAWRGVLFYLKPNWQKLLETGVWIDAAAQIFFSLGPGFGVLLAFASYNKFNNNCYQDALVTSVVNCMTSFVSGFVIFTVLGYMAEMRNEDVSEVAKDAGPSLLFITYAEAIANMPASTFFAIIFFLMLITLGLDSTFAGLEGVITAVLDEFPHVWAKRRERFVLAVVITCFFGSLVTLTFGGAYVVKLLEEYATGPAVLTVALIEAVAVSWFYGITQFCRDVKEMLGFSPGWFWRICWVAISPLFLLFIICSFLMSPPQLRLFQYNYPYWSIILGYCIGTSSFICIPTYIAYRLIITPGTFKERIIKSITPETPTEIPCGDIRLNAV
T6 sequence (Q01959 whole entry): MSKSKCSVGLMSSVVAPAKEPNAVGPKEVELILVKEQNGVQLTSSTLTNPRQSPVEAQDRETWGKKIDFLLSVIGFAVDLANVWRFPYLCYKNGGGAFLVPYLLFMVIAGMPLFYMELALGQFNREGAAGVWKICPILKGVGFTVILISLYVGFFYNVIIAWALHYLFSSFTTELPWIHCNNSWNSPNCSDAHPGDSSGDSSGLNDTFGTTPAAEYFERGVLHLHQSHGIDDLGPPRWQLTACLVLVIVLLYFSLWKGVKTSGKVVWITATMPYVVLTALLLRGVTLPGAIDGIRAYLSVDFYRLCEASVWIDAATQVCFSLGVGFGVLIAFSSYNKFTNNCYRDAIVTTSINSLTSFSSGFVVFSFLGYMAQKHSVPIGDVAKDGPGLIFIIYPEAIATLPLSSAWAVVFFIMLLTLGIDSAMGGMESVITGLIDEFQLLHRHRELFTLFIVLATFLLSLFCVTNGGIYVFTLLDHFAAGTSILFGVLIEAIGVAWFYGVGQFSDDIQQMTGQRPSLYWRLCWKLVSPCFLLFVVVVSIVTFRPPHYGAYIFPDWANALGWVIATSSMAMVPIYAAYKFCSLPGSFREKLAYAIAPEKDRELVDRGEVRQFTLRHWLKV
T9 sequence (P43681 29-627 limits assumed): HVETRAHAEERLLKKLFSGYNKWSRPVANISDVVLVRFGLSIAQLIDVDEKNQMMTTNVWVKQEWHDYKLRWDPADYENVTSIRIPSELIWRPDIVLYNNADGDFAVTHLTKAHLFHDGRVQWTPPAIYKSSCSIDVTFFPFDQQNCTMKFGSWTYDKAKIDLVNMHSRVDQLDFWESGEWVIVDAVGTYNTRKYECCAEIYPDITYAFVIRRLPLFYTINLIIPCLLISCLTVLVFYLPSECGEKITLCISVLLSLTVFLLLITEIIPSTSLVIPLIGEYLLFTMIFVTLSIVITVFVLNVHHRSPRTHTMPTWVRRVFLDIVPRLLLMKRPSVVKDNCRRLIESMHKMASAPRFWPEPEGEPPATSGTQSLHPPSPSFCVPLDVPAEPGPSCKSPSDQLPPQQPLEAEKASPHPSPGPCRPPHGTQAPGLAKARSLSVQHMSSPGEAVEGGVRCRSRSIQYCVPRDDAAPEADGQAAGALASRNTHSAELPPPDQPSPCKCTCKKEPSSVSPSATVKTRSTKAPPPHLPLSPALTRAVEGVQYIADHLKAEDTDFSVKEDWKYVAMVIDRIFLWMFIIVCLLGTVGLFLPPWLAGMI
T9 sequence (P17787 26-502): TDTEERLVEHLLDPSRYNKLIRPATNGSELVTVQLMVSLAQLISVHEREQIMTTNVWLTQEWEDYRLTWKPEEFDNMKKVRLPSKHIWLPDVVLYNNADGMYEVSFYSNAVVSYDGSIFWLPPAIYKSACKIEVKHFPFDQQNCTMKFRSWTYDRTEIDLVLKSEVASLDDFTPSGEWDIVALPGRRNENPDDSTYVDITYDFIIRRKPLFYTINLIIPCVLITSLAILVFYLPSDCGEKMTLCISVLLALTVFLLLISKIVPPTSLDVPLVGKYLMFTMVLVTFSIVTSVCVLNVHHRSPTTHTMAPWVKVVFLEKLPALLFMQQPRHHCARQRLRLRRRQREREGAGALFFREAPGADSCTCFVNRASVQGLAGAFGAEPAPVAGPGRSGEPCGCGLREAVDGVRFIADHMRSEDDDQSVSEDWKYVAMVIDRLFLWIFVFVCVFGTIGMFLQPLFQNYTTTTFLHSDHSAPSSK
T7 sequence (P35367 whole entry): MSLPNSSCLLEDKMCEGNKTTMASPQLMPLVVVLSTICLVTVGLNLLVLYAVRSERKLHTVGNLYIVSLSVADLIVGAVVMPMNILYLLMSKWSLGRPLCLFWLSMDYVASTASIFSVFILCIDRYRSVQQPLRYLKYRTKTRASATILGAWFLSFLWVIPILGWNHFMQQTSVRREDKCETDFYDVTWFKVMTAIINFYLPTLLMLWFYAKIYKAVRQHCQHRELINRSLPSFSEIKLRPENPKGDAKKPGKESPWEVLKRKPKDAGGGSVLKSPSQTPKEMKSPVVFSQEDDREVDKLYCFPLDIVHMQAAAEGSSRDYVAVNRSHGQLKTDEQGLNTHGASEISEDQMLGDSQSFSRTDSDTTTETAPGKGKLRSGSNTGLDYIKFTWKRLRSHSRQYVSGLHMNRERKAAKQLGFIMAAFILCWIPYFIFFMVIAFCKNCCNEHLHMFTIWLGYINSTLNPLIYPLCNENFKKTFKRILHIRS
T4 sequence (P23219 24-599): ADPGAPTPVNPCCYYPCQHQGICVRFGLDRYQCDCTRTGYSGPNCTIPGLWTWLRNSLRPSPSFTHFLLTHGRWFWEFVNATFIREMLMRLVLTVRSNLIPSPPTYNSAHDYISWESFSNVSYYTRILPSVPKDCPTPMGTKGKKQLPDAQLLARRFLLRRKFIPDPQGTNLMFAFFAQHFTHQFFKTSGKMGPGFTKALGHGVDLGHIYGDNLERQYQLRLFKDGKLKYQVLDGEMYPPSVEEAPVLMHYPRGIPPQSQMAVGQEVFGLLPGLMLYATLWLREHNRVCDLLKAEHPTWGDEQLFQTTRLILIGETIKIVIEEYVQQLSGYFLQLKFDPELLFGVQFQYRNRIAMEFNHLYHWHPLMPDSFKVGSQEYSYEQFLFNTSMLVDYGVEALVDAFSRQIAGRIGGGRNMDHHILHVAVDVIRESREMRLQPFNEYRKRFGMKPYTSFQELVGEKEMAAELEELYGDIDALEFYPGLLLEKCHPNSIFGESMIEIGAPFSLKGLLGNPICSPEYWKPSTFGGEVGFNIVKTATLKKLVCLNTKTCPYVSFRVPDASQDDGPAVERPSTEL

Row | SMILES | perc_inhibition (% inhibition of the binding of a ligand specific for each target) (beta2 (h)) | perc_inhibition (% inhibition of the binding of a ligand specific for each target) (KV channel) | perc_inhibition (% inhibition of the binding of a ligand specific for each target) (BZD (central)) | perc_inhibition: % inhibition of control enzyme activity, PDE3A (h) (PDE3A (h)) | perc_inhibition (% inhibition of the binding of a ligand specific for each target) (H2 (h)) | perc_inhibition: % inhibition of control enzyme activity, COX1(h) (COX1(h)) | perc_inhibition (% inhibition of the binding of a ligand specific for each target) [1] | cc10 (Vero E6/TMPRSS2) | perc_max_measured (Vero E6/TMPRSS2) | perc_min_measured (Vero E6/TMPRSS2) | perc_inhibition (% inhibition of the binding of a ligand specific for each target) (GR (h)) | perc_inhibition (% inhibition of the binding of a ligand specific for each target) (dopamine transporter (h)) | perc_inhibition (% inhibition of the binding of a ligand specific for each target) (H1 (h)) | perc_inhibition (% inhibition of the binding of a ligand specific for each target) [2] | perc_inhibition (% inhibition of the binding of a ligand specific for each target) (AR(h)) | clint [3] | t_half [3] | perc_inhibition: % inhibition of control enzyme activity, PDE4D2 (h) (PDE4D2 (h)) | perc_inhibition (% inhibition of the binding of a ligand specific for each target) (Na+ channel (site 2)) | perc_inhibition (% inhibition of the binding of a ligand specific for each target) (human CHRM2 (M2)) | further results
1 | CC(C)[C@H](Nc1ncnc2[nH]ccc12)c1ccc2c(c1)S(=O)(=O)CCC2 [ASAP-0008674] | -1% | -10% | 4% | 29% | -6% | 85% | 12% | > 5.0 µM | 135.379% and 119.601% | 95.549% and 105.983% | 10% | 27% | -3% | 1% | 0% | 14.3 µL/min/mg | 48.5 min | 36% | -5% | 34% | CC50 (Vero E6/TMPRSS2): > 5 µM; perc_inhibition: % inhibition of the binding of a ligand specific for each target, 5-HT transporter (h) (antagonist radioligand) (5-HT transporter (h)): 0%
2 | Cn1ncc(-c2cc3c(N[C@@H](c4ccc5c(n4)OCCO5)C(C)(C)C)ncnc3[nH]2)c1C#N [ASAP-0011221] | 4% | 5% | -5% | 37% | -10% | -14% | 21% | – | – | – | 28% | 50% | 7% | -5% | 5% | 17.8 µL/min/mg | 38.8 min | 20% | 34% | 25% | perc_inhibition: % inhibition of the binding of a ligand specific for each target, 5-HT transporter (h) (antagonist radioligand) (5-HT transporter (h)): 2%
3 | Cc1nn(C)cc1-c1cc2c(NC(c3ccc4c(c3)S(=O)(=O)CCC4)C(C)C)ncnc2[nH]1 (centres unmarked) [ASAP-0011446] | – | 1% | 29% | – | – | – | 12% | > 5.0 µM | 106.351% | 79.435% | – | – | – | – | 6% | – | – | – | -1% | – | inhibition at 10 µM (beta2 (h); [4]): -7%; inhibition at 10 µM (PDE3A (h); read-out: perc_inhibition: % inhibition of control enzyme activity, PDE3A (h)): 46%; inhibition at 10 µM (H2 (h); [4]): -4%; inhibition at 10 µM (COX1(h); read-out: perc_inhibition: % inhibition of control enzyme activity, COX1(h)): -23%; inhibition at 10 µM (GR (h); [5]): 7%; inhibition at 10 µM (dopamine transporter (h); [5]): 13%; inhibition at 10 µM (H1 (h); [4]): 0%; perc_inhibition: % inhibition of the binding of a ligand specific for each target, 5-HT transporter (h) (antagonist radioligand) (5-HT transporter (h)): -4%; inhibition at 10 µM [2, 4]: -2%; inhibition at 10 µM (PDE4D2 (h); read-out: perc_inhibition: % inhibition of control enzyme activity, PDE4D2 (h)): 43%; inhibition at 10 µM (human CHRM2 (M2); [4]): 5%
4 | C[C@H](C(=O)O)[C@@H](NC(=O)c1ncnc2[nH]ccc12)c1ccc(Br)cc1 [ASAP-0014722] | -8% | 0% | -4% | 52% | -21% | 14% | -12% | > 5.0 µM | 112.113% | 82.421% | 3% | 4% | -8% | 0% | 12% | < 5.0 µL/min/mg | > 139.0 min | 30% | 6% | -4% | CC50 (Vero E6/TMPRSS2): > 5 µM
5 | COc1ccc([C@H](Cc2nnn[nH]2)NC(=O)c2ncnc3[nH]ccc23)cc1 [ASAP-0015381] | -6% | -1% | 0% | 62% | -24% | 17% | -22% | > 5.0 µM | 119.979% | 89.804% | 1% | 7% | -4% | 4% | -2% | < 5.0 µL/min/mg | > 139.0 min | 41% | -3% | -12% | CC50 (Vero E6/TMPRSS2): > 5 µM
